# Data reported in patent publication US7196074B2, “Methods of making, using and pharmaceutical formulations comprising 7α, 11β-dimethyl-17β-hydroxyestra-4, 14-dien-3-one and 17 esters thereof” (The United States of America as represented by the …, priority 2000, dated 2007).
# What was measured:
# ventral prostate weight [1] = assay: Subcutaneous androgenic potency, ventral prostate weight assay in orchidectomized immature rats (injection daily for seven days); format: in vivo, Sprague-Dawley rats; conditions: for Androgenic Potency (activity of corresponding alcohol): ventral prostate weight assay following subcutaneous administration, alcohol of G = 1.0 (assigned), value is for the free alcohol of the listed ester
# Protocol: (§1) Immature (about 21-day-old) Sprague-Dawley rats were orchidectomized under anesthesia, and randomly assignee to groups of ten animals for each dose level of the active undergoing testing. Each active was dissolved in 10% ethanol/sesame oil and administered by gavage (oral) or subcutaneous injection each day for seven days beginning on the date of the orchidectomy. The animals were sacrificed 24 hours after the last dose, and the ventral prostate and seminal vesicles were excised, cleaned of fat and connective tissue, blotted on moist filter paper and weighed to the nearest 0.1 mg. Regression analysis was performed by conventional methods using a PROPHET data management system. Ventral prostate weight was used as the endpoint because it is the sensitive organ to androgenic stimulation.
# as §1, with “by” for “by gavage (oral) or”, “mg. See, e.g., Hershberger, L. et al, Myotrophic Activity of 19-nortestosterone And Other Steroids Determined By Modified Levator And Muscle Method, Proc. Soc. Exptl. Bid. Med. 83 175–180 (1953).” for “mg.”, “system. See, e.g., Bliss, C., The Statistics of Bioassay (Academic Press, New York, 1952); Hollister, C., Nucleic Acids Res. 16 1873–75 (1988).” for “system.”
# Immature (about 22-day-old) Sprague-Dawley male rats were orchidectomized under anesthesia, and randomly assignee to groups of ten animals for each dose level of the active undergoing testing. […] Illumination was controlled for 14 hour periods of light and 10 hours of darkness.
# Each active was administered by subcutaneous injection of 0.6 mg of test material in aqueous suspending vehicle (ASV) and/or an oily vehicle (10% ethanol/sesame oil) on the day of surgery. Testosterone enanthate in sesame oil was used as a standard. The ventral prostate and seminal vesicles were excised, cleaned of fat and connective tissue, blotted on moist filter paper and weighed to the nearest 0.1 mg. Regression analysis was performed by conventional methods using a PROPHET data management system. Ventral prostate weight was used as the endpoint because it is the sensitive organ to androgenic stimulation.
# ventral prostate weight [2] = assay: Duration of androgenic activity after subcutaneous injection, ventral prostate weight over weeks in orchidectomized immature rats; format: in vivo, Sprague-Dawley rats
# Protocol: as §1, with “was” for “was dissolved in 10% ethanol/sesame oil and”, “by” for “by gavage (oral) or”
# Except for testosterone enanthate, each active was formulated in two different carriers: (1) an aqueous suspension and (2) in sesame oil. Testosterone enanthate was formulated using the sesame oil carrier only, because it exists as a liquid at room temperature and could not therefore be formulated as an aqueous suspension.
# (§2) The carrier used to provide the aqueous suspension was formulated as follows: 1 g benzyl alcohol, 0.5 g sodium carboxylethyl cellulose 50, 0.376 g disodium hydrogen phosphate dihydrate, 1.495 g sodium dihydrogen phosphate dihydrate, with water for injection (WFI) being added to bring volume of the carrier up to 100 ml.
# Each formulation was prepared at a concentration of 0.6 mg/0.2 ml.
# Immature (about 21-day-old) Sprague-Dawley rats were orchidectomized under anesthesia, and randomly assignee to groups of 40 or more. Animals received a single subcutaneous injection of 0.6 mg of each ester in 0.2 ml of an aqueous suspending carrier and/or oily carrier (10% ethanol/90% sesame oil or ethyl oleate) on the date of the orchidectomy. In cases where the ester was not solid at room temperature, 10% ethanol/sesame oil or ethyl oleate was used as the carrier. In this example, the carrier used to provide the aqueous suspension was formulated as follows: 1 g benzyl alcohol, 0.5 g sodium carboxylethyl cellulose 50, 0.376 g disodium hydrogen phosphate dihydrate, 1.495 g sodium dihydrogen phosphate dihydrate, with water for injection (WFI) being added to bring volume of the carrier up to 100 ml.
# Five animals from each group were sacrificed at weekly or biweekly intervals, and the ventral prostate and seminal vesicles were excised, cleaned of fat and connective tissue, blotted on moist filter paper and weighed to the nearest 0.1 mg.
# Ventral prostate weight was used as the endpoint because it is the sensitive organ to androgenic stimulation. Regression analysis was performed by conventional methods using the PROPHET data management system previously identified.
# Immature (about 21-day-old) Sprague-Dawley rats were orchidectomized under anesthesia, and randomly assignee to groups of 40 or more. Animals received a single subcutaneous injection of 0.6 mg of the undecanoate in 0.2 ml of an aqueous suspending carrier and/or oily carrier (10% ethanol/90% sesame oil containing 5 mg/ml chlorobutanol as a preservative, or ethyloleate) on the date of the orchidectomy. The enanthate ester was formulated using the 10% ethanol/sesame oil or ethyloleate carrier as a first standard, with the 10% ethanol/sesame oil carrier used as a second standard.
# as §2, with “In this example, the” for “The”
# Immature (about 21-day-old) Sprague-Dawley rats were orchidectomized under anesthesia, and randomly assignee to groups of 40 or more. […] The enanthate ester was formulated using the 10% ethanol/sesame oil or ethyloleate carrier as a first standard, with the 10% ethanol/sesame oil carrier used as a second standard.
# androgen receptor = target: T1, androgen receptor (Rattus norvegicus, UniProt P15207); assay: Relative binding affinity to the androgen receptor; conditions: from rat prostate; relative to methyltrienolone = 100%; value is for the free alcohol of the listed ester
# T1 sequence (P15207 1-902): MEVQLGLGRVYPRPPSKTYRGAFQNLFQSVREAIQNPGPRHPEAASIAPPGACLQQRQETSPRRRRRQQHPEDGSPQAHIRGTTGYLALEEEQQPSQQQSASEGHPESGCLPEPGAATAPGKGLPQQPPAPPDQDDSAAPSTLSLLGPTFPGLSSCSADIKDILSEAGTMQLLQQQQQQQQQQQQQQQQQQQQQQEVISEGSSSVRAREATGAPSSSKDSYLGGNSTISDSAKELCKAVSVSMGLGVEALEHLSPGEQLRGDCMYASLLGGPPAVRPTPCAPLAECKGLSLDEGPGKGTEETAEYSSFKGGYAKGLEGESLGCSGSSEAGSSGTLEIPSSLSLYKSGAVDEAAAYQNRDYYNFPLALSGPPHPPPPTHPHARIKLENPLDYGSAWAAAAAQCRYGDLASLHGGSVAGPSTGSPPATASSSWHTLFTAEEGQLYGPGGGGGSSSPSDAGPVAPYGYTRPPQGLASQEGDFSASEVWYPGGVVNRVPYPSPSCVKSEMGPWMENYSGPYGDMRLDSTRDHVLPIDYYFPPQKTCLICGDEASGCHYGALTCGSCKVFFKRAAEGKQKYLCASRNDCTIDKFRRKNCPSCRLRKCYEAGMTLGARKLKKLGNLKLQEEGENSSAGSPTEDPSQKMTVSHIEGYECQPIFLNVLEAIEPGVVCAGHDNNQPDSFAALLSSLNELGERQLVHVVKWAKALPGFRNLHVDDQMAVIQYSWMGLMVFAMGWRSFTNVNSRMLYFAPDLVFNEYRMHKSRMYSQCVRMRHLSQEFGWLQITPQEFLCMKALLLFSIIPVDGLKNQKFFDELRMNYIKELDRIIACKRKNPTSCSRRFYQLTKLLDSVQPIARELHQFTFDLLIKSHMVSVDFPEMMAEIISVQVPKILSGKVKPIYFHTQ
# Protocol: In addition to the foregoing, the androgenic potency and relative binding affinity to the androgen receptor of several free alcohols after subcutaneous administration of their corresponding esters was also determined.
structure (smiles),measurement,setting,value
C[C@@H]1CC2=CC(=O)CC[C@@H]2[C@@H]2[C@@H]1[C@@H]1CC[C@H](O)[C@@]1(C)C[C@@H]2C,melting point,,155 to 157 °C
"CCCCC1CCC(C(=O)O[C@H]2CC[C@H]3[C@H]4[C@H]([C@H](C)C[C@]23C)[C@H]2CCC(=O)C=C2C[C@H]4C)CC1 (stereo partly drawn) [CDB-4386, 7α, 11α-Dimethyl-19-nortestosterone-17β-bucyclate, reference compound]",activity after subcutaneous administration (in words),"ventral prostate weight [1]; subcutaneous injection daily for 7 days in 10% ethanol/sesame oil, ventral prostate weight",weak activity
same,ventral prostate weight over time after single subcutaneous injection (in words),"ventral prostate weight [2]; 0.6 mg in 0.2 ml, both oily and aqueous carriers, evaluation discontinued at 8 weeks, FIG. 8",inactive
same,"activity in potency and duration after subcutaneous injection (in words), FIG. 5","ventral prostate weight [2]; 0.6 mg/0.2 ml, aqueous suspension or sesame oil, ventral prostate weight",relatively low activity
C[C@]1(O)CC[C@H]2[C@@H]3CCC4=CC(=O)CCC4=C3C=C[C@@]21C [methyltrienolone],Androgenic Potency (activity of corresponding alcohol),ventral prostate weight [1],5.0
same,Relative Binding Affinity (activity of corresponding alcohol),androgen receptor,100%
"CCCCC1CCC(C(=O)O[C@H]2CC[C@H]3[C@@H]4CCC5=CC(=O)CC[C@]5(C)[C@H]4CC[C@]23C)CC1 (some centres unmarked) [testosterone bucyclate, Testosterone bucyclate, reference compound]",Androgenic Potency (activity of corresponding alcohol),ventral prostate weight [1],1.0 (assigned)
same,"potency and long-term activity after subcutaneous injection versus 0.6 mg CDB-4386A in aqueous suspension (in words), FIG. 5","ventral prostate weight [2]; 1.0 mg/0.2 ml, aqueous suspension, ventral prostate weight",significantly less
